Test results as given in patent US8642343B2, “Blood separating agent and blood collection container” (Sekisui Medical Co., Ltd., priority 2010, dated 2014).

Assay: Solubility of polymerization inhibitors at 25° C.
Details: in water

SMILES	Solubility (25° C.)	Solubility (25° C.) (listed as hydroquinone)
COc1ccc(O)cc1 [Material 1, p-methoxyphenol]	4 g/100 ml	
CC(C)(C)c1cc(O)c(C(C)(C)C)cc1O [Material 2, 2,5-di-t-butylhydroquinone]	0.002 g/100 ml	
c1ccc2c(c1)Nc1ccccc1S2 [Material 3, phenothiazine]	insoluble	
Oc1ccc(O)cc1 [Material 4, hydroquinone, reference compound]	7 g/100 mL g/100 ml	7 g/100 ml
